Key:
Pyricularia oryzae [1] = assay: Antifungal activity against wild type Magnaporthe oryzae Hoku-1 in rice seedlings assessed as preventive value of rice blast at 5 ug/ml systemic application at 22 to 30 degC by pot test; format: functional
Pyricularia oryzae [2] = assay: Antifungal activity against wild type Magnaporthe oryzae Hoku-1 in rice seedlings assessed as preventive value of rice blast at 5 ug/ml foliar spray at 26 degC by pot test; format: functional

Row | Compound | Activity (Pyricularia oryzae [1]) | Activity (Pyricularia oryzae [2])
1 | CCC1(C(=O)NCCc2ccc(C)cc2)C(C)C1(Cl)Cl (stereo not given) | <40% | <40%
2 | CCC1(C(=O)NC(C)C2CCCCCC2)C(C)C1(Cl)Cl (stereo not given) | <40% | <40%
3 | CCC1(C(=O)Nc2ccc(Cl)cc2)C(C)C1(Cl)Cl (stereo not given) | <40% | <40%
4 | CC[C@@]1(C(=O)N[C@H](C)c2ccc(Cl)cc2)[C@@H](C)C1(Cl)Cl (mixture of isomers) [CARPROPAMIDE] | >90% | >90%
5 | CCC1(C(=O)NCCc2ccc(C(F)(F)F)cc2)C(C)C1(Cl)Cl (stereo not given) | 40% | 40%
6 | CCC1(C(=O)NCC(C)c2ccc(Cl)cc2)C(C)C1(Cl)Cl (stereo not given) | 40% | 40%
7 | CCC1(C(=O)NC(C)C2CCCCC2)C(C)C1(Cl)Cl (stereo not given) | <40% | <40%
8 | CCC1(C(=O)NCCc2cccc(Cl)c2)C(C)C1(Cl)Cl (stereo not given) | 40% | 40%
9 | CCC1(C(=O)NCCc2ccc(Cl)cc2)C(C)C1(Cl)Cl (stereo not given) | 40% | 40%
10 | CCC1(C(=O)NC(C)C2CCCC2)C(C)C1(Cl)Cl (stereo not given) | 40% | <40%
11 | CCC1(C(=O)NCCc2ccc(Cl)s2)C(C)C1(Cl)Cl (stereo not given) | 40% | 40%
12 | CCC1(C(=O)NCCc2csc(Cl)n2)C(C)C1(Cl)Cl (stereo not given) | 40% | 40%
13 | CCC1(C(=O)NCCc2ccc(Br)cc2)C(C)C1(Cl)Cl (stereo not given) | <40% | <=40%
14 | CC1(C)C(C(=O)NCCc2csc(Cl)c2)C1(Cl)Cl (stereo not given) | <40% | <40%
15 | CCC1(C(=O)NCCc2ccc(Cl)c(Cl)c2)C(C)C1(Cl)Cl (stereo not given) | 40% | 40%
16 | CC1(C)C(Cl)(Cl)C1(C)C(=O)NCCc1csc(Cl)c1 (stereo not given) | 40% | 40%
17 | CCC(NC(=O)C1(CC)C(C)C1(Cl)Cl)c1ccc(Cl)cc1 (stereo not given) | <40% | <=40%
18 | CCC1(C(=O)NC(C)C)C(C)C1(Cl)Cl (stereo not given) | <40% | <40%
19 | CCC1(C(=O)NCCc2csc(Cl)c2)C(C)C1(Cl)Cl (stereo not given) | 65% | 65%
20 | CCC1(C(=O)NCCc2cc(Cl)cs2)C(C)C1(Cl)Cl (stereo not given) | 40% | 40%
21 | CCC1(C(=O)NCCc2cc(Cl)c(Cl)s2)C(C)C1(Cl)Cl (stereo not given) | 40% | <=40%
22 | CCC1(C(=O)NCCCc2ccc(Cl)cc2)C(C)C1(Cl)Cl (stereo not given) | 40% | 40%
23 | CC1C(Cl)(Cl)C1(C)C(=O)NCCc1csc(Cl)c1 (stereo not given) | 40% | 40%

Row | Compound | Activity (Pyricularia oryzae [1]) | Activity (Pyricularia oryzae [2])
24 | CCC1(C(=O)NC(C)C2CCC2)C(C)C1(Cl)Cl (stereo not given) | <40% | <40%
25 | CCC(C)NC(=O)C1(CC)C(C)C1(Cl)Cl (stereo not given) | <40% | <40%
26 | CCC1(C(=O)NC(C)c2ccc(Cl)s2)C(C)C1(Cl)Cl (stereo not given) | <=40% | <=40%
27 | CCC1(C(=O)NCCc2cc(Cl)sc2Cl)C(C)C1(Cl)Cl (stereo not given) | <40% | 40%
28 | CCC1(C(=O)NCc2ccc(Cl)cc2)C(C)C1(Cl)Cl (stereo not given) | 40% | <=40%
29 | CC(C)(C)C(Br)C(=O)NCCc1csc(Cl)c1 (stereo not given) | 40% | 40%
30 | CCC1(C(=O)NC(C)c2cc(Cl)cs2)C(C)C1(Cl)Cl (stereo not given) | <=40% | <=40%
31 | CCC1(C(=O)NC(C)c2cc(Cl)c(Cl)s2)C(C)C1(Cl)Cl (stereo not given) | <=40% | 40%
32 | CC(C)C1(C(=O)NCCc2csc(Cl)c2)CC1(Cl)Cl (stereo not given) | 40% | 40%
33 | CCCC1(C(=O)NCCc2csc(Cl)c2)CC1(Cl)Cl (stereo not given) | <40% | <40%
34 | CCC1(C(=O)NCCC(F)(F)F)C(C)C1(Cl)Cl (stereo not given) | <40% | <40%
35 | CCC1(C(=O)NCCc2ccsc2)C(C)C1(Cl)Cl (stereo not given) | <=40% | 40%
36 | CCC1(C(=O)NCCc2ccc(Cl)cc2Cl)C(C)C1(Cl)Cl (stereo not given) | 40% | 40%
37 | CCC1(C(=O)NCCc2ccc(F)cc2F)C(C)C1(Cl)Cl (stereo not given) | 40% | 40%
38 | CCC1(C(=O)NCCc2csc(Br)c2)C(C)C1(Cl)Cl (stereo not given) | <40% | 40%
39 | CC(C)(C)C(C#N)C(=O)NCCc1csc(Cl)c1 (stereo not given) | 65% | 40%
40 | CCC1(C(=O)NCCc2ccc(F)cc2)C(C)C1(Cl)Cl (stereo not given) | 40% | 40%
41 | CCC1(C(=O)NC(C)c2csc(Cl)c2)C(C)C1(Cl)Cl (stereo not given) | 40% | <=40%
42 | CCC1(C(=O)NCCc2cnc(Cl)s2)C(C)C1(Cl)Cl (stereo not given) | 40% | 40%
43 | CCC1(C(=O)NC(C)Cc2ccc(Cl)cc2)C(C)C1(Cl)Cl (stereo not given) | <40% | <40%
44 | CCC1(C(=O)NCCc2ccccc2Cl)C(C)C1(Cl)Cl (stereo not given) | 40% | 40%
45 | CC(C)(C)C(Cl)C(=O)NCCc1csc(Cl)c1 (stereo not given) | 40% | 40%
